Legend:
Experiment in all cases: Test E pre-/postemergence herbicide test
Surinam grass = format: in vivo, Urochloa decumbens
Procedure, shortened: (§1)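 Ratings from 0 (no effect) to 100 (complete control) were assigned by visual comparison with untreated plants 12 to 14 days after application. Test chemicals, formulated with surfactant in a non-phytotoxic solvent blend, were applied to soil after planting or to foliage of 2–18 cm plants.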

bermudagrass = format: in vivo, Cynodon dactylon
Procedure, shortened: as §1

Italian ryegrass = format: in vivo, Lolium multiflorum
Procedure, shortened: as §1

guineagrass = format: in vivo, Panicum maximum
Procedure, shortened: as §1

broadleaf signalgrass = format: in vivo, Brachiaria platyphylla
Procedure, shortened: as §1

green foxtail = format: in vivo, Setaria viridis
Procedure, shortened: as §1

southern sandbur = format: in vivo, Cenchrus echinatus
Procedure, shortened: as §1

barnyardgrass = format: in vivo, Echinochloa crus-galli
Procedure, shortened: as §1

mustard = format: in vivo, Brassica nigra
Procedure, shortened: as §1

Canada horseweed = format: in vivo, Erigeron Canadensis; conditions: Preemergence
Source text: Seeds of plant species selected from bipinnate beggarticks (Bidens bipinnata L.), hairy beggarticks (Bidens radiata Thuill.), bermudagrass (Cynodon dactylon (L.) Pers.), Surinam grass (Urochloa decumbens (Staph) R. D. Webster, previously named Brachiaria decumbens Stapf), large crabgrass (Digitaria sanguinalis (L.) Scop.), green foxtail (Setaria viridis (L.) P. Beauv.), goosegrass (Eleusine indica (L.) Gaertn.), johnsongrass (Sorghum halepense (L.) Pers.), kochia (Kochia scoparia (L.) Schrad.), pitted morningglory (Ipomoea lacunosa L.), purple nutsedge (Cyperus rotundus L.), common ragweed (Ambrosia elatior L.), mustard (Brassica nigra (L.) W. D. J. Koch), guineagrass (Panicum maximum Jacq.), dallisgrass (Paspalum dilatatum Poir.), barnyardgrass (Echinochloa crus-galli (L). P. Beauv.), southern sandbur (Cenchrus echinatus L.), common sowthistle (Sonchus oleraceous L.), prickly sida (Sida spinosa L.), Italian ryegrass (Lolium multiflorum Lam.), common purslane (Portulaca oleracea L.), broadleaf signalgrass (Brachiaria platyphylla (Griseb.) Nash), common groundsel (Senecio vulgaris L.), common chickweed (Stellaria media (L.) Vill/Cyr.), tropical spiderwort (Commelina benghalensis L.), annual bluegrass (Poa annua L.), downy bromegrass (Bromus tectorum L.), itchgrass (Rottboellia cochinchinensis (L.) L.f.), quackgrass (Elytrigia repens (L.) Nevski), Canada horseweed (Erigeron Canadensis L.), field bindweed (Convolvulus arvensis L.), spotted spurge (Euphorbia maculata L.), common mallow (Malva sylvestris (=s silvestris) L.), and Russian thistle (Salsola kali L. ssp. Ruthenica (Iljin) Soo) were planted and treated preemergence with test chemicals formulated in a non-phytotoxic solvent mixture which included a surfactant.
At the same time, plants selected from these weed species were treated with postemergence applications of some of the test chemicals formulated in the same manner. Plants ranged in height from 2 to 18 cm (1- to 4-leaf stage) for postemergence treatments. Treated plants and controls were maintained in a greenhouse for 12 to 14 days, after which time all species were compared to controls and visually evaluated. Plant response ratings, summarized in Table E, are based on a scale of 0 to 100 where 0 is no effect and 100 is complete control. A dash (-) response means no test result.

[1] = Postemergence, 250 g ai/ha, scale 0 to 100
[2] = Preemergence, 62 g ai/ha, scale 0 to 100
[3] = Preemergence, 125 g ai/ha, scale 0 to 100
[4] = Preemergence, 250 g ai/ha, scale 0 (no effect) to 100 (complete control)
[5] = Preemergence, 500 g ai/ha, scale 0 (no effect) to 100 (complete control)
[6] = postemergence, 125 g ai/ha, scale 0 to 100
[7] = postemergence, 62 g ai/ha, scale 0 to 100
[8] = Preemergence, 125 g ai/ha, scale 0 (no effect) to 100 (complete control)
[9] = Postemergence, 500 g ai/ha, scale 0 to 100

## CCNC(=O)c1ccc(F)c(NC(=O)c2cc(C(C)(C)C)nn2CC)c1 [Compound 2, 3-(1,1-dimethylethyl)-1-ethyl-N-[5-[(ethylamino)carbonyl]-2-fluorophenyl]-1H-pyrazole-5-carboxamide]
Surinam grass; [1]
  Plant response rating, Surinam Grass: 100
Surinam grass; [2]
  Plant response rating, Surinam Grass: 60
Surinam grass; [3]
  Plant response rating, Surinam Grass: 80
Surinam grass; [4]
  Plant response rating, Surinam Grass: 80
Surinam grass; [5]
  Plant response rating, Surinam Grass: 90
Surinam grass; [6]
  Plant response rating, Surinam Grass: 90
Surinam grass; [7]
  Plant response rating, Surinam Grass: 75
bermudagrass; [1]
  Plant response rating, Bermudagrass: 90
bermudagrass; [2]
  Plant response rating, Bermudagrass: 90
bermudagrass; [8]
  Plant response rating, Bermudagrass: 95
bermudagrass; [4]
  Plant response rating, Bermudagrass: 100
bermudagrass; [5]
  Plant response rating, Bermudagrass: 100
bermudagrass; [6]
  Plant response rating, Bermudagrass: 85
bermudagrass; [7]
  Plant response rating, Bermudagrass: 20
Italian ryegrass; [1]
  Plant response rating, Ryegrass, Italian: 98
Italian ryegrass; [2]
  Plant response rating, Ryegrass, Italian: 60
Italian ryegrass; [8]
  Plant response rating, Ryegrass, Italian: 80
Italian ryegrass; [4]
  Plant response rating, Ryegrass, Italian: 95
Italian ryegrass; [5]
  Plant response rating, Ryegrass, Italian: 95
Italian ryegrass; [6]
  Plant response rating, Ryegrass, Italian: 90
Italian ryegrass; [7]
  Plant response rating, Ryegrass, Italian: 80
guineagrass; [1]
  Plant response rating, Guineagrass: 95
guineagrass; [2]
  Plant response rating, Guineagrass: 70
guineagrass; [8]
  Plant response rating, Guineagrass: 80
guineagrass; [4]
  Plant response rating, Guineagrass: 100
guineagrass; [5]
  Plant response rating, Guineagrass: 100
guineagrass; [6]
  Plant response rating, Guineagrass: 75
guineagrass; [7]
  Plant response rating, Guineagrass: 30
Broadleaf signalgrass; [1]
  Plant response rating, Signalgrass: 85
Broadleaf signalgrass; [2]
  Plant response rating, Signalgrass: 50
Broadleaf signalgrass; [8]
  Plant response rating, Signalgrass: 70
Broadleaf signalgrass; [4]
  Plant response rating, Signalgrass: 75
Broadleaf signalgrass; [5]
  Plant response rating, Signalgrass: 90
Broadleaf signalgrass; [6]
  Plant response rating, Signalgrass: 80
Broadleaf signalgrass; [7]
  Plant response rating, Signalgrass: 30
Green foxtail; [1]
  Plant response rating, Foxtail, Green: 95
Green foxtail; [2]
  Plant response rating, Foxtail, Green: 40
Green foxtail; [8]
  Plant response rating, Foxtail, Green: 80
Green foxtail; [4]
  Plant response rating, Foxtail, Green: 100
Green foxtail; [5]
  Plant response rating, Foxtail, Green: 100
Green foxtail; [6]
  Plant response rating, Foxtail, Green: 90
Green foxtail; [7]
  Plant response rating, Foxtail, Green: 60
Southern sandbur; [1]
  Plant response rating, Sandbur: 95
Southern sandbur; [2]
  Plant response rating, Sandbur: 60
Southern sandbur; [8]
  Plant response rating, Sandbur: 70
Southern sandbur; [4]
  Plant response rating, Sandbur: 80
Southern sandbur; [5]
  Plant response rating, Sandbur: 100
Southern sandbur; [6]
  Plant response rating, Sandbur: 75
Southern sandbur; [7]
  Plant response rating, Sandbur: 65
barnyardgrass; [1]
  Plant response rating, Barnyardgrass: 95
barnyardgrass; [2]
  Plant response rating, Barnyardgrass: 60
barnyardgrass; [8]
  Plant response rating, Barnyardgrass: 80
barnyardgrass; [4]
  Plant response rating, Barnyardgrass: 100
barnyardgrass; [5]
  Plant response rating, Barnyardgrass: 100
barnyardgrass; [6]
  Plant response rating, Barnyardgrass: 90
barnyardgrass; [7]
  Plant response rating, Barnyardgrass: 80
mustard; [1]
  Plant response rating, Black Mustard: 100
mustard; [2]
  Plant response rating, Black Mustard: 60
mustard; [8]
  Plant response rating, Black Mustard: 100
mustard; [4]
  Plant response rating, Black Mustard: 100
mustard; [5]
  Plant response rating, Black Mustard: 100
mustard; [6]
  Plant response rating, Black Mustard: 95
mustard; [7]
  Plant response rating, Black Mustard: 90
Canada horseweed; 62 g ai/ha, scale 0 to 100
  Plant response rating, Horseweed: 80
Canada horseweed; 125 g ai/ha, scale 0 (no effect) to 100 (complete control)
  Plant response rating, Horseweed: 100
Canada horseweed; 250 g ai/ha, scale 0 (no effect) to 100 (complete control)
  Plant response rating, Horseweed: 100
Canada horseweed; 500 g ai/ha, scale 0 (no effect) to 100 (complete control)
  Plant response rating, Horseweed: 100

## CCn1nc(C2(C)CC2)cc1C(=O)Nc1cc(C(=O)N(C)C)ccc1F [Compound 299]
Surinam grass; [9]
  Plant response rating, Surinam Grass: 90
Surinam grass; [1]
  Plant response rating, Surinam Grass: 75
Surinam grass; [3]
  Plant response rating, Surinam Grass: 95
Surinam grass; [5]
  Plant response rating, Surinam Grass: 100
Surinam grass; [6]
  Plant response rating, Surinam Grass: 75
Surinam grass; [7]
  Plant response rating, Surinam Grass: 70
bermudagrass; [9]
  Plant response rating, Bermudagrass: 80
bermudagrass; [1]
  Plant response rating, Bermudagrass: 70
bermudagrass; [2]
  Plant response rating, Bermudagrass: 80
bermudagrass; [3]
  Plant response rating, Bermudagrass: 100
bermudagrass; [4]
  Plant response rating, Bermudagrass: 100
bermudagrass; [5]
  Plant response rating, Bermudagrass: 95
bermudagrass; [6]
  Plant response rating, Bermudagrass: 50
bermudagrass; [7]
  Plant response rating, Bermudagrass: 40
Italian ryegrass; [9]
  Plant response rating, Ryegrass, Italian: 85
Italian ryegrass; [1]
  Plant response rating, Ryegrass, Italian: 85
Italian ryegrass; [2]
  Plant response rating, Ryegrass, Italian: 70
Italian ryegrass; [3]
  Plant response rating, Ryegrass, Italian: 95
Italian ryegrass; [4]
  Plant response rating, Ryegrass, Italian: 100
Italian ryegrass; [5]
  Plant response rating, Ryegrass, Italian: 100
Italian ryegrass; [6]
  Plant response rating, Ryegrass, Italian: 80
Italian ryegrass; [7]
  Plant response rating, Ryegrass, Italian: 60
guineagrass; [9]
  Plant response rating, Guineagrass: 85
guineagrass; [1]
  Plant response rating, Guineagrass: 75
guineagrass; [2]
  Plant response rating, Guineagrass: 70
guineagrass; [3]
  Plant response rating, Guineagrass: 85
guineagrass; [4]
  Plant response rating, Guineagrass: 100
guineagrass; [5]
  Plant response rating, Guineagrass: 100
guineagrass; [6]
  Plant response rating, Guineagrass: 70
guineagrass; [7]
  Plant response rating, Guineagrass: 60
Broadleaf signalgrass; [9]
  Plant response rating, Signalgrass: 80
Broadleaf signalgrass; [1]
  Plant response rating, Signalgrass: 70
Broadleaf signalgrass; [2]
  Plant response rating, Signalgrass: 60
Broadleaf signalgrass; [3]
  Plant response rating, Signalgrass: 80
Broadleaf signalgrass; [4]
  Plant response rating, Signalgrass: 100
Broadleaf signalgrass; [5]
  Plant response rating, Signalgrass: 100
Broadleaf signalgrass; [6]
  Plant response rating, Signalgrass: 60
Broadleaf signalgrass; [7]
  Plant response rating, Signalgrass: 20
Green foxtail; [9]
  Plant response rating, Foxtail, Green: 100
Green foxtail; [1]
  Plant response rating, Foxtail, Green: 85
Green foxtail; [2]
  Plant response rating, Foxtail, Green: 50
Green foxtail; [3]
  Plant response rating, Foxtail, Green: 100
Green foxtail; [4]
  Plant response rating, Foxtail, Green: 100
Green foxtail; [5]
  Plant response rating, Foxtail, Green: 100
Green foxtail; [6]
  Plant response rating, Foxtail, Green: 70
Green foxtail; [7]
  Plant response rating, Foxtail, Green: 30
Southern sandbur; [9]
  Plant response rating, Sandbur: 80
Southern sandbur; [1]
  Plant response rating, Sandbur: 70
Southern sandbur; [2]
  Plant response rating, Sandbur: 10
Southern sandbur; [3]
  Plant response rating, Sandbur: 60
Southern sandbur; [4]
  Plant response rating, Sandbur: 100
Southern sandbur; [5]
  Plant response rating, Sandbur: 100
Southern sandbur; [6]
  Plant response rating, Sandbur: 40
Southern sandbur; [7]
  Plant response rating, Sandbur: 30
barnyardgrass; [9]
  Plant response rating, Barnyardgrass: 80
barnyardgrass; [1]
  Plant response rating, Barnyardgrass: 70
barnyardgrass; [2]
  Plant response rating, Barnyardgrass: 60
barnyardgrass; [3]
  Plant response rating, Barnyardgrass: 85
barnyardgrass; [4]
  Plant response rating, Barnyardgrass: 95
barnyardgrass; [5]
  Plant response rating, Barnyardgrass: 100
barnyardgrass; [6]
  Plant response rating, Barnyardgrass: 70
barnyardgrass; [7]
  Plant response rating, Barnyardgrass: 40
mustard; [9]
  Plant response rating, Black Mustard: 100
mustard; [1]
  Plant response rating, Black Mustard: 100
mustard; [2]
  Plant response rating, Black Mustard: 100
mustard; [3]
  Plant response rating, Black Mustard: 100
mustard; [4]
  Plant response rating, Black Mustard: 100
mustard; [5]
  Plant response rating, Black Mustard: 95
mustard; [6]
  Plant response rating, Black Mustard: 100
mustard; [7]
  Plant response rating, Black Mustard: 100
